{
  "source": "patent US20200069592A1",
  "about": "“HSP90 INHIBITOR ORAL FORMULATIONS AND RELATED METHODS” (Samus Therapeutics, Inc., priority 2017, published 2020)",
  "key": {"[1]": {"experiment": "Solubility / compatibility testing in drinking solution vehicles and ingredients (Example 7)", "type": "physicochemical", "source_text": "This Example examined drinking solution vehicles for Compound 1 2HCl. Initially Orasweet® Sugar Free options were explored as a vehicle for Compound 1 2HCl.\nORA-Sweet®, commerically available from Perrigo, comprises purified water, sucrose, glycerine, sorbitol, and flavouring. ORA-Sweet® is buffered with citric acid and sodium phosphate and preserved with methylparaben and potassium sorbate.\nORA-Sweet® Sugar Free, commerically available from Perrigo, comprises purified water, glycerine, sorbitol, sodium saccharin, xanthan gum, and flavouring. It is buffered with citric acid and sodium citrate and preserved with methylparaben (0.03%), potassium sorbate (0.1%), and propylparaben (0.008%).\nSyrSpend® SF Cherry, commercially available from Fargon, comprises purified water, modified food starch, sodium citrate, citric acid, sucralose, sodium benzoate (<0.1% preservative), sorbic acid, malic acid and simethicone.\nSyrSpend® SF Alka, commercially available from Fargon, comprises modified starch, calcium carbonate and sucralose.\n(§1) ORA-Blend®, commerically available from Perrigo, comprises purified water, sucrose, glycerin, sorbitol, flavoring, microcrystalline cellulose, carboxymethylcellulose sodium, xanthan gum, carrageenan, calcium sulfate, trisodium phosphate, citric acid and sodium phosphate as buffers, dimethicone antifoam emulsion and preserved with methylparaben and potassium sorbate.\nas §1, with “ORA-Plus®,” for “ORA-Blend®,”, “water,” for “water, sucrose, glycerin, sorbitol, flavoring,”"}, "[2]": {"conditions": "female, Nu/Nu (NU-Foxn1^nu) athymic nude, mouse, in vivo, po, 150 mg/kg, 14 days", "quoted_text": "The animals used in this study were Nu/Nu (NU-Foxn1^nu) (athymic nude) physiologically normal female mice supplied by Charles River. At the time of inoculation, the age of the animals was 5-8 weeks. Sixty total animals were used and animals were not replaced during the course of this study. Mice were identified with a transponder. The animals were housed in individually ventilated microisolator cages and allowed to acclimate for at least 5-7 days. The animals were maintained under pathogen-free conditions and given Teklad Global Diet® 2920x irradiated pellets for food and autoclaved water ad libitum.\nCompound ldihydrochloride (2HCl) was provided as a crystalline powder and stored at 2-8° C. protected from light. The administered form of Compound 1 2HCl was a clear solution. For intraperitoneal administration, Compound 1 2HCl was reconstituted in PBS. For oral administration, Compound 1 2HCl was reconstituted in 0.5% Methylcellulose (MC) in water. The salt: base ratio was 1.14:1 (i.e., to obtain 100 mg of Compound 1 free base, 114 mg of Compound 1 dihydrochloride salt was weighed out). Dose levels of Compound 1 were based on the free base, not the salt. Compound 1 2HCl in administered form was prepared fresh immediately prior to use.\nAnimals were randomized using random equilibration of tumor volume into one of six study groups, as shown in Table 22 (Groups 1-6), with 10 animals in each group.\nGroup 1 was administered vehicle control alone (without Compound 1 2HCl) intraperitoneally (IP) three times weekly (TIW) until the end of the study. PBS was used as the vehicle control and was administered at a volume of 10 mL/kg.\nGroups 2-6 were administered Compound 1 2HCl at a volume of 10 mL/kg three times weekly (TIW) until the end of the study with the doses as described next.\nGroup 2 received 75 mg/kg Compound 1 2HCl via intraperitoneal administration.\nGroup 3 received 75 mg/kg Compound 1 2HCl via oral administration (PO). Group 4 received 100 mg/kg Compound 1 2HCl via oral administration. Group 5 received 125 mg/kg Compound 1 2HCl via oral administration. Group 6 received 150 mg/kg Compound 1 2HCl via oral administration. […]\nTumor volume and body weight were measured twice weekly with gross observations daily. […]\nFor data analysis, simple statistics (ANOVA) will be conducted on tumor volumes to verify significance of treatment groups relative to control. Growth curves will be constructed and percent tumor growth inhibition (TGI) will be calculated as a means to assess the effect of the single-agent therapy regimens. […]\nThe Materials and Methods used were the same as discussed above for Example 3, except for the lengths of treatment for Groups 1-4. […] Tumor growth and body weight were measured twice weekly with gross observations daily for Groups 1-5 until Day 117."}},
  "note": "Where two headings read alike, the source gives them in different places.",
  "data": [
    {"smiles": "CC(C)NCCCn1c(Sc2cc3c(cc2I)OCO3)nc2c(N)ncnc21", "note": "[Compound 1 2HCl]", "values": [
      {"measurement": "solubility", "setting": "[1]; 50% Flavor Sweet SF in water, aqueous with cosolvent or surfactant or cyclodextrin, API in 50% Flavor Sweet SF/H2O, read-out: Solubility testing result: Precipitate at", "value": "< 5000", "unit": "µg/mL"},
      {"measurement": "solubility", "setting": "[1]; 50% Versa Free in water, aqueous with cosolvent or surfactant or cyclodextrin, API in 50% Versa Free/H2O, read-out: Solubility testing result: Precipitate at", "value": "< 5000", "unit": "µg/mL"},
      {"measurement": "solubility", "setting": "[1]; Flavor Sweet (sugar free) vehicle, aqueous with cosolvent or surfactant or cyclodextrin, API in Flavor Sweet (sugar free), read-out: Solubility testing result: Precipitate at", "value": "< 5000", "unit": "µg/mL"},
      {"measurement": "Compatibility with drinking solution vehicle", "setting": "[1]; Orasweet Sugar Free formulations (contain xanthan gum)", "value": "incompatibility"},
      {"measurement": "solubility", "setting": "[1]; Versa Free vehicle, aqueous with cosolvent or surfactant or cyclodextrin, API in Versa Free, read-out: Solubility testing result: Precipitate at", "value": "< 5000", "unit": "µg/mL"},
      {"measurement": "solubility", "setting": "[1]; glycerin in 50% water, aqueous with cosolvent or surfactant or cyclodextrin, read-out: Ingredient solubility testing", "value": "> 10000", "unit": "µg/mL"},
      {"measurement": "solubility", "setting": "[1]; glycerin, organic solvent or mixture, read-out: Ingredient solubility testing", "value": "> 6000", "unit": "µg/mL"},
      {"measurement": "Treatment toxicity", "setting": "[2]", "value": "stopped on Day 14 due to toxicity"}
    ]}
  ]
}
